# From US9486461B2, “Methods and compositions for inducing apoptosis by stimulating ER stress” (UNIVERSITY OF SOUTHERN CALIFORNIA, priority 2007, dated 2016)
# “Also recorded” adds a separate entry of the source.
# Tests used:
# U251 glioblastoma cells [1] = experiment: Colony formation assay after siRNA transfection, U251; format: cell-based, human; conditions: 48 h
# Protocol: U251 glioblastoma cells were transiently transfected with si-RNA directed at GRP78 (si-GRP78) or caspase 4 (si-Casp 4). As a control, an siRNA targeted at green fluorescent protein (si-GFP) was used. […] After 48 hours of drug treatment, the drugs were removed and the fraction of surviving cells was determined by colony forming assays. Shown is the percentage of surviving cells (where the number of colonies under non-drug treated conditions was set to 100%). […] (B) In order to verify the effectiveness of the si-RNAs, Western blot analysis of the target proteins was performed. Note that the knock-down of GRP78 leads to increased levels of CHOP protein, as expected from the model of ER stress, where GRP78 signaling is upstream of CHOP.
# U251 cells were transiently transfected with si-RNA directed at GRP78 (si-GRP78). As a control, an siRNA targeted at green fluorescent protein (si-GFP) was used. […] In parallel, transfected control cultures received no drug treatment or treatment with solvent (DMSO) alone. After 48 hours, the drugs were removed and the fraction of surviving cells was determined by colony forming assays over the course of 12-14 days. […]
# Twenty-four hours after transfection with small interfering RNA (siRNA), the cells were seeded into six-well plates at 200 cells per well. […] Colonies were visualized by staining for 4 h with 1% methylene blue (in methanol) and then counted. […]
# purified COX-2 protein = target: T1, purified COX-2 protein (Homo sapiens, UniProt P35354); experiment: COX-2 inhibition in vitro with purified COX-2 protein; format: biochemical
# T1 sequence (P35354 18-604): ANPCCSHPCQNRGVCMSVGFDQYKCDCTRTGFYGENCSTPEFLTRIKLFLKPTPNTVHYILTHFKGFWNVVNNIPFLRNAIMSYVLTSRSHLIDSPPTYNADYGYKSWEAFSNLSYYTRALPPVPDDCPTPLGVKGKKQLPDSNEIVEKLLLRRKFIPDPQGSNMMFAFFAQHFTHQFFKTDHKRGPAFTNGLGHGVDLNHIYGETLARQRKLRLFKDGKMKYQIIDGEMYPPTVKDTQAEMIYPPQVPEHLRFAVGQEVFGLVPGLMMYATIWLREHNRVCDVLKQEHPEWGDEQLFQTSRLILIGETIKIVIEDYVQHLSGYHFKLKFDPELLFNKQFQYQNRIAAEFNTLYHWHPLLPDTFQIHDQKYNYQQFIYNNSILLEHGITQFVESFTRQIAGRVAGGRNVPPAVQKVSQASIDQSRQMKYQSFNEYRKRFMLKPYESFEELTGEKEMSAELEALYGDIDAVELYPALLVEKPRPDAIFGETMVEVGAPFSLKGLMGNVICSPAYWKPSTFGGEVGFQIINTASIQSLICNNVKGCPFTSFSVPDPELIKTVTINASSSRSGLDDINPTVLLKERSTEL
# Protocol: Bortezomib was obtained from the pharmacy as 3.5 mg Velcade suspended in 3.5 mL saline (Millennium Pharmaceuticals).
# U251 glioblastoma cells [2] = experiment: TUNEL assay in cell culture, U251; format: cell-based, human; conditions: U251, 30 and 50 μmol/L, 48 hours
# Protocol: (§1) U251 glioblastoma cells were treated with different drugs, and various parameters of cell growth and cell death were comparatively analyzed. As controls, cells remained either non-treated (Co) or were treated with the solvent DMSO alone. (FIG. 8A) Cells were treated with 30 or 50 μM DMC for 48 hours and the effects on cell growth/survival and on cell death were determined by various assays. […] Below the three panels, the expression levels of the ER stress indicators CHOP, GRP78, and caspase 4 at the end of the 48 hour drug treatment is shown, as determined by Western blot analysis with specific antibodies (actin served as a loading control. (FIG. 8B) Cells were treated with various concentrations of different drugs for 48 hours, as indicated, and cell death was measured with the cell death ELISA kit. (FIG. 8C) Cells were treated with DMC or various coxibs and traditional NSAIDs for 48 hours, as indicated, and cell growth and survival was determined with the conventional MTT assay (control, non-treated cells were set at 100%). MTT assays were performed in 96-well plates with the use of 3.0-8.0×10^3 cells per well as described in detail elsewhere (34). In parallel, the expression levels of CHOP and GRP78 protein were determined by Western blot analysis.
# We next investigated the relationship of ER stress induction and cell death. […]
# U251 glioblastoma cells [3] = experiment: Cell death ELISA, U251; format: cell-based, human; conditions: U251, 48 hours, concentrations of up to 100 μmol/L
# Protocol: as §1
# Apoptosis in cell cultures in vitro was determined by using the Cell Death Detection ELISA kit (Roche Diagnostics, Indianapolis, Ind.) according to the manufacturer's instructions. This immunoassay specifically detects the histone region (H1, H2A, H2B, H3, and H4) of mononucleosomes and oligonucleosomes that are released during apoptosis. Ninety-six-well plates were seeded with 1,000 cells per well and read at 405 nm in a Microplate Autoreader (Model EL 311 SX; Bio-Tek Instruments, Inc., Winooski, Vt.).
SMILES,"cell survival when GRP78 levels were reduced by siRNA (vs si-GFP) (U251 glioblastoma cells [1]; U251, 40 μM Cxb or 30 μM DMC)","cell survival when caspase-4 expression was diminished by siRNA (vs si-GFP) (U251 glioblastoma cells [1]; U251, 60 μM Cxb or 40 μM DMC)",COX-2-inhibitory activity (purified COX-2 protein),apoptosis (TUNEL) (U251 glioblastoma cells [2]),induction of cell death/apoptosis (cell death ELISA) (U251 glioblastoma cells [3])
"Cc1ccc(C)c(-c2cc(C(F)(F)F)nn2-c2ccc(S(N)(=O)=O)cc2)c1 [DMC, 4-[5-(2,5-dimethylphenyl)-3-(trifluoromethyl)-1H-pyrazol-1-yl]benzenesulfonamide]",less cell survival,increased,lacks the ability to inhibit COX-2; also recorded: lack thereof,substantially increased apoptosis,
"Cc1ccc(-c2cc(C(F)(F)F)nn2-c2ccc(S(N)(=O)=O)cc2)cc1 [celecoxib, 4-[5-(4-methylphenyl)-3-(trifluoromethyl)-1H-pyrazol-1-yl]benzenesulfonamide]",,,,,able to induce cell death/apoptosis
